Measured values from patent US20030069187A1, “Elastase inhibitors” (priority 2001, published 2003).

Legend:
elastase = settings: other elastase inhibitors, compared with AFP; cited from earlier work
[1] = target: T1, porcine pancreatic elastase (PPE) (Sus scrofa, UniProt P00772); assay: Elastase inhibitory capacity assay with succinylated elastin substrate; format: biochemical; settings: 0.029 U PPE, 200 μg succinylated elastin; for increase in elastase inhibitory capacity compared to total EDP: 37° C. 30 min, % inhibition standardized to μg protein, p<0.001
T1 construct: purchased Calbiochem, San Diego, Calif
T1 sequence (P00772 27-266): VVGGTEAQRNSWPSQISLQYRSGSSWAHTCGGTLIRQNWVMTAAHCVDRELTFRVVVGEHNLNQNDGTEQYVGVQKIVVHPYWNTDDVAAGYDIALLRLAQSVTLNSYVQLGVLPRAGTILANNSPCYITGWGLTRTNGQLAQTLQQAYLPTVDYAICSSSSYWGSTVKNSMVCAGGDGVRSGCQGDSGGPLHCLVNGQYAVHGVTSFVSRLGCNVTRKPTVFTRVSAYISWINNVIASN
Procedure: FIG. 1 is a bar graph depicting results from experiments in which the inhibitory capacity of each EDP isolate was evaluated in triplicate using 200 μg of succinylated elastin (Rao et al., 1997; Mathrubutham et al., 1998), 30 μg of Total EDP, […] of G-25 fractions and RP-HPLC fractions and 0.029 U PPE in 150 μl with 50 mM sodium borate pH8.5. Reactions were incubated at 37° C. for 30 minutes, then treated with 2,4,6-trinitrobenzene sufonic acid. Absorbance at A450nm was determined after 20 min at room temperature. Elastase inhibitory capacity was evaluated by comparing the activity of PPE in the presence and absence of EDP, where elastase in the absence of EDP was considered to represent 100% elastase activity. The data was standardized to protein content and is presented as % inhibition per μg of protein. […] PEP7 is VPG; PEP8 is AGIP and PEP9 is AFP.
Total EDP was fractionated on a G-25 Sephadex column equilibrated with 50 mM sodium borate pH 8.5 at a flow rate of 0.7 ml/minute. G-25 inhibitory fractions were then analyzed by reverse phase high performance liquid chromatography (RP-HPLC) using a C-18 column (Vydac, Hesperia, Calif.) with 5% acetonitrile, 0.1% triflouroacetic acid pH 2.3 as RP buffer at a flow rate of 0.5 ml/minutes and monitored at A205nm. Fractions were collected, dried, and resuspended in 50 μl water and assayed for elastase inhibitory capacity (Rao et al., 1997; Mathrabutham et al., 1998). The inhibitory capacity of G-25 and RP-HPLC EDP fractions were evaluated (Rao et al., 1997; Mathrabutham et al., 1998) using 3 μg of G-25 fraction and RP-HPLC peptide with 0.029 U PPE. Percentage inhibitory capacity was evaluated by comparing the activity of PPE in the presence and absence (100% activity) of EDP and standardized to μg protein. The inhibitor constant (Ki) was experimentally calculated (Lineweaver et al., 1936). […]

Compound	increase in elastase inhibitory capacity compared to total EDP [1]	also measured
CC(C)C[C@H](NC(=O)N[C@H](C(=O)N[C@@H](CCC(N)=O)C(=O)N[C@@H](C)C=O)[C@@H]1CCNC(=N)N1)C(=O)O [elastatinal]		Ki (elastase): 50 µM
Ala-Gly-Ile-Pro (AGIP; printed: Ala-Gly-Ile-Pro)	4.3 fold	
VGVAPG		elastase inhibition (% inhibition per μg of protein) ([1]; FIG. 1): elastase inhibition is a characteristic that is not shared by all EDPs
Val-Pro-Gly [VPG]	4.8 fold	
